Test results taken from US12479841B2, “Anthelmintic compounds comprising azaindoles structure” (Intervet Inc., priority 2019, dated 2025).

Legend:
[1] = target: Caenorhabditis elegans slo-1a (Caenorhabditis elegans, UniProt Q95V25)
Experimental: In Vitro Assay: Agonistic Activity at C. elegans Slo-1a
A CHO K1 cell line stably transfected with the Caenorhabditis elegans slo-1a (accession no Y51A2D.19a) was established. Cells were seeded in microtiter plates (black 384-well MTP, clear bottom) in a concentration of 10,000 cells/well in 25 μl medium and cultured for 20 to 24 hours at 37° C. and 5% CO2. The cell medium was removed, and the cells washed with Tyrode's solution. 25 μl of FMP-dye Blue-Tyrode's was added to each well and incubated at room temperature for 30 min.
(§1) For the membrane potential measurements, the prepared cell plate and substance plate were placed in the FLIPR Tetra (Molecular Devices). The baseline measurement of the fluorescence was stared for 20 sec (Exc. 510-545 nm, Emm. 565-625 nm). The cells were depolarized by addition of 25 μl of the diluted test compounds (final assay concentration of the KCl-Tyrode: 70 mM KCl, 2 mM CaCl2, 1 mM MgCl2, 0.8 mM NaH2PO4, 5 mM Glucose, 28 mM Hepes, pH 7.4, including the voltage sensitive dye). The complete measurement takes 150 s.
(§2) EC50 values were determined in triplicate utilizing compound dilution series. The data were determined at least in two independent tests. The data were proceeded by using the ActivityBase XE Runner software (IDBS) for curve fitting and calculation of the half-maximal effective concentration.

[2] = target: human Maxi K channel (BK channel), KCNMA1 (KCa1.1) and beta1 (KCNMB1) subunits (Homo sapiens, UniProt Q12791)
Experimental: In Vitro Assay: Agonistic Activity at the Human Maxi K Channel (BK Channel)
A CHO K1 cell line was stably transfected with the KCNMA1 (KCa1.1, U11058) and beta1 (KCNMB1) subunits of the human Maxi K channel (Ponte et al, Molecular Pharmacology 2012, 81(4), 567-577).
Cells were seeded in microtiter plates (black 384-well MTP, clear bottom) in a concentration of 10,000 cells/well in 25 μl medium and cultured for 20 to 24 hours at 37° C. and 5% CO2. The cell medium was removed, and the cells washed with Tyrode's solution. 25 μl of FMP-dye Blue-Tyrode's was added to each well and incubated at room temperature for 30 min.
as §1, §2

[3] = test system: Oesophagostomum dentatum (nodular worm of swine), larval stage 3; assay: In vitro assay: Oesophagostomum dentatum L3 larvae, minimum effective concentration; conditions: in Sus scrofa, read-out: MEC (minimum effective concentration) against Oesophagostomum dentatum L3, L3 larvae, 20 per well, microscopic examination, concentration at which at least one larva shows mortality, change in motility or development
Text: (§3) In Vitro Assay: Ascaridia galli and Oesophagostomum dentatum
(§4) Ascaridia galli (intestinal roundworm of chicken), larval stage 3 (“L3”); and Oesophagostomum dentatum (nodular worm of swine), larval stages 3 and 4 (respectively “L3” and “L4”) where suspended in a nutrient medium and distributed to 96 well plates with 20 larvae per well. The wells were spiked with DMSO solutions of the compounds with declining concentration.

[4] = test system: larvae L4 of D. immitis; assay: In vitro assay: Dirofilaria immitis L4 motility; type: cell-based; conditions: 72 h, read-out: EC50 value, Dirofilaria immitis L4, 10 L4 larvae, 3 days incubation, reduction in motility vs DMSO, duplicates
[5] = test system: D. immitis microfilaria; assay: In vitro assay: Dirofilaria immitis L1 (microfilaria) motility; type: cell-based; conditions: 72 h, read-out: EC50 value, Dirofilaria immitis L1, approximately 500 microfilaria, 3 days incubation, reduction in motility vs DMSO, duplicates
[6] = test system: A. viteae microfilaria; assay: In vitro assay: Acanthocheilonema viteae L1 (microfilaria) motility; conditions: 72 h, read-out: EC50 value, Acanthocheilonema viteae L1, approximately 500 microfilaria, 3 days incubation, reduction in motility vs DMSO, duplicates
Experimental: In Vitro Assay: Acanthocheilonema viteae L1
Approximately 500 A. viteae microfilaria were added to a microtiter plate containing a nutrient medium and the test compound in DMSO at varying concentrations. After incubation for 3 days, activity was evaluated as reduction in motility as compared to DMSO as negative control. Compounds were tested in duplicates. Based on the concentration response curves EC50 values were calculated.

[7] = test system: Oesophagostomum dentatum (nodular worm of swine), larval stage 4; assay: In vitro assay: Oesophagostomum dentatum L4 larvae, minimum effective concentration; conditions: in Sus scrofa, read-out: MEC (minimum effective concentration) against Oesophagostomum dentatum L4, L4 larvae, 20 per well, microscopic examination, concentration at which at least one larva shows mortality, change in motility or development
Text: as §3, §4

Caenorhabditis elegans slo-1a, sequence (Q95V25 whole entry): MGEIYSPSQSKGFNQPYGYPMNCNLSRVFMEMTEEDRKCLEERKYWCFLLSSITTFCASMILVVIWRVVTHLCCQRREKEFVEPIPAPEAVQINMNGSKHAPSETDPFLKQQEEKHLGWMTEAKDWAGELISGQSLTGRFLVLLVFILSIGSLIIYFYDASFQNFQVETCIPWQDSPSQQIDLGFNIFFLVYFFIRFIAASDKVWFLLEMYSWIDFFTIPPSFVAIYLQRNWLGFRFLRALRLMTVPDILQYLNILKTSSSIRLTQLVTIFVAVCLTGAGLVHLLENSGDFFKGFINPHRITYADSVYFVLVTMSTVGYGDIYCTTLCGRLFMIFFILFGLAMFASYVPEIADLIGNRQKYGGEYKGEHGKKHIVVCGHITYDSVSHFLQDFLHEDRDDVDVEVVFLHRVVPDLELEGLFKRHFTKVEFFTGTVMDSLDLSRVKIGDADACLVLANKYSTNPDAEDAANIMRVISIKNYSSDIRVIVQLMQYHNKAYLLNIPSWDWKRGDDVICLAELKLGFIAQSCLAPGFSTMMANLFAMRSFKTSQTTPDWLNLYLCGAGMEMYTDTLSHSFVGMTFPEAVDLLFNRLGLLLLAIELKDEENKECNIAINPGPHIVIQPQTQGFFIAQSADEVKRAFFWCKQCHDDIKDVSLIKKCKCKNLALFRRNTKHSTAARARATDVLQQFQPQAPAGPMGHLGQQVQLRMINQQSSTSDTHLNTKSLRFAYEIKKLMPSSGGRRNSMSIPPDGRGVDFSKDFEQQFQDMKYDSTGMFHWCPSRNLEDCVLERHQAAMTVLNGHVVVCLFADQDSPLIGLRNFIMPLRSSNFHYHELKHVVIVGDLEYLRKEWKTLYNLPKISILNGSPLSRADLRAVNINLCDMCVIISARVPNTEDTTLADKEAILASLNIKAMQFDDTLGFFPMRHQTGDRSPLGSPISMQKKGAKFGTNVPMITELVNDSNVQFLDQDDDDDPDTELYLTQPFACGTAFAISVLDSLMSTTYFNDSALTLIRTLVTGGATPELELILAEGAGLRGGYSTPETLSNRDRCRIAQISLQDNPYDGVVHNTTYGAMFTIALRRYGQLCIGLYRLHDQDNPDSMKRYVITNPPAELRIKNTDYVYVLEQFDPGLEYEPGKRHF
human Maxi K channel (BK channel), KCNMA1 (KCa1.1) and beta1 (KCNMB1) subunits, sequence (Q12791 1-1178 isoform Q12791-5): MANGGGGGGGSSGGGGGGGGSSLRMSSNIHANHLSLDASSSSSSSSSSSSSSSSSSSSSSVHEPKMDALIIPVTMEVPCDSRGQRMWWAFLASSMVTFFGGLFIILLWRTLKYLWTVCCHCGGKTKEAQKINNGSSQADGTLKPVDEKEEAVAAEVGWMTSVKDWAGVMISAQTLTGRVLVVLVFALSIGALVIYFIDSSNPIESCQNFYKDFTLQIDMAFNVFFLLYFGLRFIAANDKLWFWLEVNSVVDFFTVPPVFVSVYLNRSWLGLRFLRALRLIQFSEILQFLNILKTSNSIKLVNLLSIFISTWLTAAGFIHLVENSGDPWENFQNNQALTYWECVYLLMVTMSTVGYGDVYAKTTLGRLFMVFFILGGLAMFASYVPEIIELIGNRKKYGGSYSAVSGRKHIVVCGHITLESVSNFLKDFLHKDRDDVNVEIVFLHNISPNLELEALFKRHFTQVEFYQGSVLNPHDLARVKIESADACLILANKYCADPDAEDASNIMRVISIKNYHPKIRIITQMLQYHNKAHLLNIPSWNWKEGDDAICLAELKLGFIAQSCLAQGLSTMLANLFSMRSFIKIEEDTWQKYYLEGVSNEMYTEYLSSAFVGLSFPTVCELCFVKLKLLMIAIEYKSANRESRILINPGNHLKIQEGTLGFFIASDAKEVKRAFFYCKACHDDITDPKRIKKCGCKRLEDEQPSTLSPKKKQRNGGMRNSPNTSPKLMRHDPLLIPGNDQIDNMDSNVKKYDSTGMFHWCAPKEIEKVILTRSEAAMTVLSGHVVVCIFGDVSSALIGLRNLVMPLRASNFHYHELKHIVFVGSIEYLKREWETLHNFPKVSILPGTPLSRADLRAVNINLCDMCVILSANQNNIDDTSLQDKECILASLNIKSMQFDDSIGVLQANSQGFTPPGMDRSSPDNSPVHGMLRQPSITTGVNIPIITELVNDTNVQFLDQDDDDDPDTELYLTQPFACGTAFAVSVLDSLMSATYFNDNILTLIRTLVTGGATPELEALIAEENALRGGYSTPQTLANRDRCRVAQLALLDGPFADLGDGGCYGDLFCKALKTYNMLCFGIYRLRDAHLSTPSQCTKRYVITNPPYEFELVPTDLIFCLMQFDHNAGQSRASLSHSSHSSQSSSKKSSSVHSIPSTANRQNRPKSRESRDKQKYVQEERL
human Maxi K channel (BK channel), KCNMA1 (KCa1.1) and beta1 (KCNMB1) subunits, sequence (Q16558 whole entry partner): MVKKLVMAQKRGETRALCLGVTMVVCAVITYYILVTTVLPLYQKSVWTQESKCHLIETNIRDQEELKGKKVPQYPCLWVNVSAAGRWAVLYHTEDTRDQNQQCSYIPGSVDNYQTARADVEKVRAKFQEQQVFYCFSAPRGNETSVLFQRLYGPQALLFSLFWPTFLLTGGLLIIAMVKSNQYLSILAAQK

CN(C)c1c(C(=O)NC2CCc3ccccc32)cnc2c1ccn2-c1cc(Cl)cc(Cl)c1 (stereo not drawn) [Compound 1, 1-(3,5-dichlorophenyl)-N-(2,3-dihydro-1H-inden-1-yl)-4-(dimethylamino)-1H-pyrrolo[2,3-b]pyridine-5-carboxamide]
EC50 [1]: < 1 µM
EC50 [2]: > 30 µM

CN(C)c1c(C(=O)NC2CCc3ccccc32)cnc2c1ccn2-c1cccc(Cl)c1Cl (stereo not drawn) [Compound 2]
EC50 [1]: < 1 µM
EC50 [2]: > 30 µM

O=C(NC1CCc2ccccc21)c1cnc2c(ccn2-c2cc(Cl)cc(Cl)c2)c1N1CCOCC1 (stereo not drawn) [Compound 3]
EC50 [2]: > 30 µM

O=C(NC1CCc2ccccc21)c1cnc2c(ccn2-c2cccc(Cl)c2Cl)c1N1CCOCC1 (stereo not drawn) [Compound 4]
EC50 [1]: < 1 µM
EC50 [2]: > 30 µM

CN(C)c1c(C(=O)NC2CCOc3ccccc32)cnc2c1ccn2-c1cc(Cl)cc(Cl)c1 (stereo not drawn) [Compound 5]
minimal effective concentration [3]: ≤ 50 µM
EC50 [1]: < 1 µM
EC50 [2]: > 30 µM

CN(C)c1c(C(=O)NC2CCOc3ccccc32)cnc2c1ccn2-c1cccc(Cl)c1Cl (stereo not drawn) [Compound 6]
EC50 [1]: < 1 µM
EC50 [2]: > 30 µM

O=C(NC1CCOc2ccccc21)c1cnc2c(ccn2-c2cc(Cl)cc(Cl)c2)c1N1CCOCC1 (stereo not drawn) [Compound 7]
EC50 [2]: > 30 µM

O=C(NC1CCOc2ccccc21)c1cnc2c(ccn2-c2cccc(Cl)c2Cl)c1N1CCOCC1 (stereo not drawn) [Compound 8]
EC50 [4]: < 1 µM
EC50 [1]: < 1 µM
EC50 [2]: > 30 µM

CN(C)c1c(C(=O)NCc2ccccc2)cnc2c1ccn2-c1cc(Cl)cc(Cl)c1 [Compound 9]
EC50 [2]: > 30 µM

CN(C)c1c(C(=O)NCc2ccccc2)cnc2c1ccn2-c1cccc(Cl)c1Cl [Compound 10]
EC50 [1]: < 1 µM
EC50 [2]: > 30 µM

O=C(NCc1ccccc1)c1cnc2c(ccn2-c2cc(Cl)cc(Cl)c2)c1N1CCOCC1 [Compound 11]
minimal effective concentration [3]: ≤ 50 µM
EC50 [2]: > 30 µM

O=C(NCc1ccccc1)c1cnc2c(ccn2-c2cccc(Cl)c2Cl)c1N1CCOCC1 [Compound 12]
EC50 [2]: > 30 µM

CN(C)c1c(C(=O)N[C@H]2CCOc3ccccc32)cnc2c1ccn2-c1cccc(Cl)c1Cl [Compound 13]
EC50 [1]: < 1 µM
EC50 [2]: > 30 µM

CN(C)c1c(C(=O)N[C@H]2CCCc3ccccc32)cnc2c1ccn2-c1cccc(Cl)c1Cl [Compound 14, (S)-1-(2,3-dichlorophenyl)-4-(dimethylamino)-N-(1,2,3,4-tetrahydronaphthalen-1-yl)-1H-pyrrolo[2,3-b]pyridine-5-carboxamide]
EC50 [1]: < 1 µM
EC50 [2]: 10 to 30 µM

CN(C)c1c(C(=O)N[C@@H]2CCc3ccccc32)cnc2c1ccn2-c1cccc(Cl)c1Cl [Compound 15]
EC50 [5]: < 10 µM
EC50 [2]: > 30 µM

CN(C)c1c(C(=O)N[C@H]2CCc3ccccc32)cnc2c1ccn2-c1cccc(Cl)c1Cl [Compound 16]
EC50 [1]: < 1 µM
EC50 [2]: > 30 µM

O=C(N[C@H]1CCCc2ccccc21)c1cnc2c(ccn2-c2cccc(Cl)c2Cl)c1N1CCOCC1 [Compound 17]
EC50 [1]: < 1 µM
EC50 [2]: 10 to 30 µM

CN(C)c1c(C(=O)N[C@@H]2CCOc3ccccc32)cnc2c1ccn2-c1cccc(Cl)c1Cl [Compound 18]
EC50 [6]: < 10 µM
minimal effective concentration [7]: ≤ 50 µM
EC50 [1]: < 10 µM
EC50 [2]: > 30 µM

CN(C)c1c(C(=O)NC2CC(C)(C)Oc3ccccc32)cnc2c1ccn2-c1cccc(Cl)c1Cl (stereo not drawn) [Compound 19]
EC50 [1]: < 10 µM
EC50 [2]: > 30 µM

CN(C)c1c(C(=O)Nc2cccc3ccccc23)cnc2c1ccn2-c1cccc(Cl)c1Cl [Compound 20]
EC50 [6]: < 10 µM
minimal effective concentration [3]: ≤ 50 µM
EC50 [2]: > 30 µM

O=C(N[C@H]1CCOc2ccccc21)c1cnc2c(ccn2-c2cccc(Cl)c2Cl)c1N1CCOCC1 [Compound 21]
EC50 [1]: < 1 µM
EC50 [2]: > 30 µM

O=C(N[C@H]1CCc2ccccc21)c1cnc2c(ccn2-c2cccc(Cl)c2Cl)c1N1CCOCC1 [Compound 22]
EC50 [2]: > 30 µM

O=C(Nc1cccc2ccccc12)c1cnc2c(ccn2-c2cccc(Cl)c2Cl)c1N1CCOCC1 [Compound 23]
minimal effective concentration [3]: ≤ 50 µM
minimal effective concentration [7]: ≤ 50 µM
EC50 [2]: > 30 µM

CN(C)c1c(C(=O)N[C@H]2CCOc3ccccc32)cnc2c1ccn2-c1cccc(F)c1F [Compound 25]
EC50 [1]: < 1 µM
EC50 [2]: > 30 µM

CN(C)c1c(C(=O)N[C@H]2CCOc3ccccc32)cnc2c1ccn2-c1cccc(C(F)(F)F)c1 [Compound 28]
EC50 [1]: < 1 µM
EC50 [2]: > 30 µM

Cc1cccc(-n2ccc3c(N(C)C)c(C(=O)N[C@H]4CCOc5ccccc54)cnc32)c1C [Compound 29]
EC50 [1]: < 1 µM
EC50 [2]: > 30 µM

CN(C)c1cccc(-n2ccc3c(N(C)C)c(C(=O)N[C@H]4CCOc5ccccc54)cnc32)c1 [Compound 30]
minimal effective concentration [3]: ≤ 50 µM
EC50 [1]: < 1 µM
EC50 [2]: > 30 µM

COc1cccc(-n2ccc3c(N(C)C)c(C(=O)N[C@H]4CCOc5ccccc54)cnc32)c1 [Compound 31]
EC50 [1]: < 1 µM
EC50 [2]: > 30 µM

CN(C)c1c(C(=O)N[C@H]2CCOc3ccccc32)cnc2c1ccn2-c1cc(Cl)cc(Cl)c1 [Compound 32]
EC50 [2]: > 30 µM

O=C(N[C@H]1CCOc2ccccc21)c1cnc2c(ccn2-c2cc(Cl)cc(Cl)c2)c1N1CCOCC1 [Compound 33]
EC50 [2]: > 30 µM

CN(C)c1c(C(=O)N[C@H]2CCCc3ccccc32)cnc2c1ccn2-c1cc(Cl)cc(Cl)c1 [Compound 34]
EC50 [1]: < 10 µM
EC50 [2]: > 30 µM

O=C(N[C@H]1CCCc2ccccc21)c1cnc2c(ccn2-c2cc(Cl)cc(Cl)c2)c1N1CCOCC1 [Compound 35]
EC50 [2]: > 30 µM

O=C(N[C@H]1CCc2ccccc21)c1cnc2c(ccn2-c2cc(Cl)cc(Cl)c2)c1N1CCOCC1 [Compound 37]
EC50 [5]: < 10 µM
EC50 [6]: < 10 µM
minimal effective concentration [3]: ≤ 50 µM
minimal effective concentration [7]: ≤ 50 µM
EC50 [2]: > 30 µM

CN(C)c1c(C(=O)NC2CC(C)(C)Oc3ccccc32)cnc2c1ccn2-c1cc(Cl)cc(Cl)c1 (stereo not drawn) [Compound 38]
EC50 [6]: < 10 µM
minimal effective concentration [3]: ≤ 50 µM
EC50 [1]: < 10 µM
EC50 [2]: 10 to 30 µM

CC1(C)CC(NC(=O)c2cnc3c(ccn3-c3cc(Cl)cc(Cl)c3)c2N2CCOCC2)c2ccccc2O1 (stereo not drawn) [Compound 39]
EC50 [6]: < 10 µM
minimal effective concentration [3]: ≤ 50 µM
minimal effective concentration [7]: ≤ 50 µM
EC50 [2]: > 30 µM

CC1(C)CC(NC(=O)c2cnc3c(ccn3-c3cccc(Cl)c3Cl)c2N2CCOCC2)c2ccccc2O1 (stereo not drawn) [Compound 40]
EC50 [6]: < 10 µM
minimal effective concentration [3]: ≤ 50 µM
EC50 [1]: < 10 µM
EC50 [2]: > 30 µM

CN(C)c1c(C(=O)Nc2cccc3ccccc23)cnc2c1ccn2-c1cc(Cl)cc(Cl)c1 [Compound 41]
EC50 [6]: < 10 µM
EC50 [2]: > 30 µM

O=C(Nc1cccc2ccccc12)c1cnc2c(ccn2-c2cc(Cl)cc(Cl)c2)c1N1CCOCC1 [Compound 42]
EC50 [2]: > 30 µM

CCOc1c(C(=O)N[C@H]2CCOc3ccccc32)cnc2c1ccn2-c1cc(Cl)cc(Cl)c1 [Compound 43]
EC50 [5]: < 10 µM
minimal effective concentration [7]: ≤ 50 µM
EC50 [2]: > 30 µM

CCOc1c(C(=O)N[C@H]2CCc3ccccc32)cnc2c1ccn2-c1cc(Cl)cc(Cl)c1 [Compound 44]
EC50 [2]: > 30 µM

CCOc1c(C(=O)N[C@H]2CCCc3ccccc32)cnc2c1ccn2-c1cc(Cl)cc(Cl)c1 [Compound 45]
EC50 [2]: > 30 µM

CCOc1c(C(=O)Nc2cccc3ccccc23)cnc2c1ccn2-c1cc(Cl)cc(Cl)c1 [Compound 46]
EC50 [2]: > 30 µM

COc1c(C(=O)N[C@H]2CCOc3ccccc32)cnc2c1ccn2-c1cc(Cl)cc(Cl)c1 [Compound 47]
EC50 [2]: > 30 µM

COc1c(C(=O)N[C@H]2CCCc3ccccc32)cnc2c1ccn2-c1cc(Cl)cc(Cl)c1 [Compound 48]
EC50 [6]: < 10 µM
minimal effective concentration [3]: ≤ 50 µM
EC50 [2]: > 30 µM

COc1c(C(=O)N[C@H]2CCc3ccccc32)cnc2c1ccn2-c1cc(Cl)cc(Cl)c1 [Compound 49]
EC50 [2]: > 30 µM

COc1c(C(=O)Nc2cccc3ccccc23)cnc2c1ccn2-c1cc(Cl)cc(Cl)c1 [Compound 50]
EC50 [5]: < 10 µM
EC50 [2]: > 30 µM

O=C(N[C@H]1CCOc2ccccc21)c1cnc2c(ccn2-c2cc(Cl)cc(Cl)c2)c1O [Compound 51]
EC50 [5]: < 10 µM
EC50 [6]: < 10 µM
EC50 [2]: > 30 µM
